Structures can show the parent of a compound that is named as a salt. Some results are limits rather than exact numbers.

The text below walks through data of patent US20210221784A1, “COMPOUNDS AND COMPOSITIONS FOR THE TREATMENT OF PAIN” (Université de Strasbourg, priority 2018, published 2021).

T1 sequence (Q9GZQ6 whole entry): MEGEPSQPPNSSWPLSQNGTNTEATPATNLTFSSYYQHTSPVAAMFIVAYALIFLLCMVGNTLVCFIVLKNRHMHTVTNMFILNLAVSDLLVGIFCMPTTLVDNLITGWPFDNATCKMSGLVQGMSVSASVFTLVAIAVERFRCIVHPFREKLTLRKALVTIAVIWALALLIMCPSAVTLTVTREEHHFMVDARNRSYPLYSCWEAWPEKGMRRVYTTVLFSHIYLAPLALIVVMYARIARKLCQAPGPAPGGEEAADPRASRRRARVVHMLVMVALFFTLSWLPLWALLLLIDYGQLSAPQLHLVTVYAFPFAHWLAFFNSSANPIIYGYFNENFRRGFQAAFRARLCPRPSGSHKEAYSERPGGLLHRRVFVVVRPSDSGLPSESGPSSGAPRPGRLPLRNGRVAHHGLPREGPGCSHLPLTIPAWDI
T2 sequence (Q9GZQ6 whole entry): as above

One series addresses T1, hNPFFR1 (Homo sapiens, UniProt Q9GZQ6).
T1 construct: expressed in transfected cells; membranes
Description: Radioligand binding competition, membranes from CHO cells expressing hNPFFR1. The note with it: 0.015 nM [D-Tyr1[125I], N-MePhe3]-NPFF, 1 hr at 25° C., read-out: NPFF1-R Ki. The protocol:
Competition experiments with membranes from CHO cells stably expressing hNPFFR1 and hNPFFR2 were performed essentially as described in Elhabazi, K., et al. Neuropharmacology, 2013. 75C, 164-171., Briefly, hNPFFR1 or hNPFFR2 membranes (5 to 10 μg of proteins) were incubated (1 hr at 25° C.; 0.25 mL total volume) with 0.015 nM [D-Tyr1[125I], N-MePhe3]-NPFF (Hartmann Analytic GmbH) in 50 mM HEPES (pH 7.4), 1 mM CaCl2, 1 mM MgCl2 and 0.1% bovine serum albumin. Non-specific binding was determined in the presence of 10 μM RFRP-3. Incubation was terminated by rapid filtration through a 96-well GF/B unifilter apparatus (Perkin Elmer Life and Analytical Sciences, Courtaboeuf, France). Unifilters were washed five times with binding buffer, then dried for 1 h at 65° C. After addition of 40 μL scintillation cocktail (Microscint-O, Perkin Elmer) per well, bound radioactivity was determined on a TopCount scintillation counter (Perkin Elmer).
For orientation: Ki means the equilibrium dissociation constant of an inhibitor or competing ligand from its target. For the compound `Nc1ccc(-c2ccccc2OC(F)(F)F)c(N)n1` [Compound 2c, 3-(2-(trifluoromethoxy)phenyl) pyridine-2,6-diamine], the Ki was determined as 34 nM.
Still for that read-out and setting: the result for `Nc1ccc(-c2ccncc2)c(N)n1` [Compound 3d, [3,4′-bipyridine]-2,6-diamine] reads 5390 nM.
On the same count and under the same terms, the result for `Nc1ccc(-c2cccnc2)c(N)n1` [Compound 3e, [3,3′-bipyridine]-2,6-diamine] reads 1930 nM; that for `Nc1ccc(-c2ccccc2)c(N)n1` [Compound 1a, 3-phenylpyridine-2,6-diamine], 188 nM.

System in a further series: not given
Experiment: not given
Details: not given
Broadly, the melting point is the temperature of the solid-liquid transition. As for `Nc1ccc(-c2ccc(N)nc2N)cn1` [Compound 82, 3-(6-amino-3-pyridyl)pyridine-2,6-diamine], the melting point lay within 220 to 240 °C.
The same measure, in the same setting: the result for `Nc1ccc(-c2ccc(N3CCCCC3)nc2)c(N)n1` [Compound 79, 3-[6-(1-piperidyl)-3-pyridyl]pyridine-2,6-diamine] reads 155 to 159 °C; that for `Cc1c(Cl)cccc1-c1cc(F)c(N)nc1N` [Compound 66, 3-(3-Chloro-2-methyl-phenyl)-5-fluoro-pyridine-2,6-diamine], 128 to 135 °C; that for `COc1ccccc1-c1cnc(N)cc1OCC(F)(F)F.Cl`, 238 to 240 °C.
The same measure, in the same setting: the figure for `COc1ccccc1-c1cnc(N)c(F)c1` [Compound 15, 3-Fluoro-5-(2-methoxy-phenyl)-pyridin-2-ylamine] is 75 to 79 °C; for `COc1ccccc1-c1ccc(N)nc1F` [Compound 32, 6-Fluoro-5-(2-methoxy-phenyl)-pyridin-2-ylamine] it is 175 to 178 °C; for `COc1ccccc1-c1cnc(N)cc1F` [Compound 18, 4-Fluoro-5-(2-methoxy-phenyl)-pyridin-2-ylamine] it is 65 to 70 °C.
On the same count and under the same terms, the figure for `Nc1ccc(-c2cccnc2F)c(N)n1` [Compound 87, 3-(2-fluoro-3-pyridyl)pyridine-2,6-diamine] is 184 to 188 °C.
For the compound `Nc1ccc(-c2cnc(N)c(C(F)(F)F)c2)c(N)n1` [Compound 83, 3-[6-amino-5-(trifluoromethyl)-3-pyridyl]pyridine-2,6-diamine], the melting point was 154 to 155 °C.
In turn, `COc1ccccc1-c1cnc(N)c(C)c1` [Compound 13, 5-(2-Methoxy-phenyl)-3-methyl-pyridin-2-ylamine] registered a melting point of 92 to 95 °C.
The same measure, in the same setting: the figure for `COc1ccccc1-c1cnc(N)cc1OC` [Compound 20, 4-Methoxy-5-(2-methoxy-phenyl)-pyridin-2-ylamine] is 140 to 144 °C.
Take `Nc1ccc(-c2ccc(N3CCOCC3)nc2)c(N)n1` [Compound 78, 3-(6-morpholino-3-pyridyl)pyridine-2,6-diamine]: the melting point lay within 201 to 205 °C.
Still for that read-out and setting: the figure for `CN(C)c1ccc(-c2ccc(N)nc2N)c2ccccc12.Cl` is 175 to 181 °C.
Still for that read-out and setting: the figure for `Nc1cc(F)c(-c2cccc(Cl)c2Cl)cn1` [Compound 17, 5-(2,3-Dichloro-phenyl)-4-fluoro-pyridin-2-ylamine] is 107 to 112 °C; for `COc1ccccc1-c1cnc(N)cc1C` [Compound 21, 5-(2-Methoxy-phenyl)-4-methyl-pyridin-2-ylamine] it is 85 to 88 °C.
With `Nc1ncc(-c2cccc(Cl)c2Cl)cc1F` [Compound 16, 5-(2,3-Dichloro-phenyl)-3-fluoro-pyridin-2-ylamine], the melting point is 130 to 136 °C.
For the compound `CC(=O)Nc1ccccc1-c1ccc(N)nc1N` [Compound 62, N-[2-(2,6-Diamino-pyridin-3-yl)-phenyl]-acetamide], the melting point fell in the range of 60 to 70 °C.
On the same count and under the same terms, the figure for `COc1ccccc1-c1cnc(N)c(C(F)(F)F)c1` [Compound 14, 5-(2-Methoxy-phenyl)-3-trifluoromethyl-pyridin-2-ylamine] is 63 to 67 °C.
The same measure, in the same setting: the figure for `CNc1ccc(-c2ccc(N)nc2N)cn1` [Compound 80, 3-[6-(methylamino)-3-pyridyl]pyridine-2,6-diamine] is 178 to 182 °C.
The same measure, in the same setting: the result for `Nc1ccc(-c2cccc(Cl)c2Cl)c(F)n1` [Compound 33, 5-(2,3-Dichloro-phenyl)-6-fluoro-pyridin-2-ylamine] reads 139 to 144 °C.
Compound `COc1ccccc1-c1ccc(N)nc1OCCN` [Compound 37, 6-(2-Amino-ethoxy)-5-(2-methoxy-phenyl)-pyridin-2-ylamine] gave a melting point of 197 to 203 °C.
On the same count and under the same terms, the figure for `Nc1ccc(-c2cccc(Cl)c2Cl)c(C(F)(F)F)n1` [Compound 34, 5-(2,3-Dichloro-phenyl)-6-trifluoromethyl-pyridin-2-ylamine] is 165 to 170 °C; for `Cl.Nc1cc(OCC(F)(F)F)c(-c2cccc(Cl)c2Cl)cn1` it is above 250 °C.
`COc1cc(N)ncc1-c1cccc(Cl)c1Cl.Cl` gave a melting point above 250 °C.
Still for that read-out and setting: the result for `COc1ccccc1-c1ccc(N)nc1OC` [Compound 35, 6-Methoxy-5-(2-methoxy-phenyl)-pyridin-2-ylamine] reads 85 to 87 °C.
On the same count and under the same terms, the figure for `NCCOc1nc(N)ccc1-c1cccc(Cl)c1Cl` (as salt: hydrochloride) [Compound 38, 6-(2-Amino-ethoxy)-5-(2,3-dichloro-phenyl)-pyridin-2-ylamine] is 183 to 190 °C.

Another series concerns the target T2, human NPFFR1 (hNPFFR1) receptor (Homo sapiens, UniProt Q9GZQ6).
T2 construct: expressed in transfected cells; host or cells: HEK-293 T cells, transient co-transfection
Description: Human NPFFR1 evaluation using BRET biosensors in HEK-293 T cells. It is filed as cell-based. The note with it: hNPFFR1 in HEK-293 T cells, stimulated by EC80 RFRP-3, read-out: IC50 of antagonist activity. The protocol: Compounds of the present invention were tested successively for their agonist and antagonist activities on human NPFFR1 (hNPFFR1) receptor transiently over-expressed in HEK-293 T cells. Compounds exert agonist activity if, by themselves in absence of neuropeptide RFRP-3 (also named NPVF) they activate hNPFFR1; and they exert antagonist activity if they decrease the action of RFRP-3 on the receptor. The assay used to measure compound activity is based on BRET (Bioluminescence Resonance Energy Transfer) biosensors and is designed to monitor the plasma membrane translocation of protein that interacts with specific Ga subunit. The specific effector (luciferase tagged: BRET donor) recruited at the membrane will be in close proximity to a plasma membrane anchor (GFP tagged: BRET acceptor) to induce a BRET signal (Ramdan et al, 2006, Chapter 5, Current Protocols in Neuroscience).
HEK-293 T cells are maintained in Dulbecco's Modified Eagle's Medium supplemented with 10% Foetal Calf Serum, 1% Penicillin/Streptomycin at 37° C./5% CO2. Cells are co-transfected using polyethylenimine (25 kDa linear) with four DNA plasmids encoding; hNPFFR1, GαoB, a Gi family specific intracellular effector fused to luciferase (BRET donor), a plasma membrane effector fused to GFP (BRET acceptor). After transfection, cells are cultured for 48 h at 37° C./5% CO2.
Receptor activity is detected by changes in BRET signal.
On the day of the assay, cells are detached using trypsin 0.05%, resuspended in assay buffer (1.8 mM CaCl2, 1 mM MgCl2, 2.7 mM KCl, 137 mM NaCl, 0.4 mM NaH2PO4, 5.5 mM D-Glucose, 11.9 mM NaHCO3, 25 mM Hepes) and seeded in 384 well plate at a density of 20,000 cells per well. Then, plates are equilibrated 3.5 hours at 37° C. before adding compounds.
Compounds and luciferase substrate are added to the cells using an automated device (Freedom Evo®, Tecan) and BRET readings are collected on EnVision (PerkinElmer) with specific filters (410 nm BW 80 nm, 515 nm BW 30 nm).
Agonist and antagonist activities of compounds are consecutively evaluated on the same cell plate. Agonist activity is first measured after 10 minutes incubation with compound alone on the cells. Then, cells are stimulated by an EC80 RFRP-3 concentration and luminescence is recorded for additional 10 minutes. EC80 RFRP-3 concentration is the concentration giving 80% of the maximal RFRP-3 response. Agonist or antagonist activities are evaluated in comparison to basal signals evoked by assay buffer or EC80 RFRP-3 alone, respectively.
For IC50 determination, a dose-response test is performed using 20 concentrations (ranging over 6 logs) of each compound. Dose-response curves are fitted using the sigmoidal dose-response (variable slope) analysis in GraphPad Prism software (GraphPad Software) and IC50 of antagonist activity is calculated. Dose-response experiments are performed in duplicate, in two independent experiments.
(In general: In BRET a luciferase serves as donor, and the signal depends on an acceptor being close.)
As a reminder, the IC50 is the concentration at which inhibition is half-maximal. `COc1ccncc1-c1ccc(N)nc1N` [Compound 88, 3-(4-methoxy-3-pyridyl)pyridine-2,6-diamine]: the IC50 was above 1000 nM.
Still for that read-out and setting: the figure for `Nc1ccc(-c2cc(Cl)ccc2C2CC2)c(N)n1` [Compound 55, 3-(5-Chloro-2-cyclopropyl-phenyl)-pyridine-2,6-diamine] is 100 to 500 nM; for `Nc1ccc(-c2ccccc2C2CC2)c(N)n1` [Compound 42, 3-(2-Cyclopropyl-phenyl)-pyridine-2,6-diamine] it is below 100 nM; for `Nc1ccc(-c2ccccc2OC(F)(F)F)c(N)n1` [Compound 2c, 3-(2-(trifluoromethoxy)phenyl) pyridine-2,6-diamine] it is 500 to 1000 nM.
Still for that read-out and setting: the figure for `COc1cccc(OC(C)C)c1-c1ccc(N)nc1N` [Compound 39, 3-(2-Isopropoxy-6-methoxy-phenyl)-pyridine-2,6-diamine] is above 1000 nM; for `Nc1ccc(-c2ccccc2OC2CC2)c(N)n1` [Compound 48, 3-(2-Cyclopropoxy-phenyl)-pyridine-2,6-diamine] it is 100 to 500 nM.
With `CCc1nc(N)ccc1-c1cccc(Cl)c1C` [Compound 29, 5-(3-chloro-2-methyl-phenyl)-6-ethyl-pyridin-2-ylamine], the IC50 was 100 to 500 nM.
Regarding `Nc1ccc(-c2ccc(Cl)cc2OC2CCCC2)c(N)n1` [Compound 47, 3-(4-Chloro-2-cyclopentyloxy-phenyl)-pyridine-2,6-diamine], the IC50 fell in the range of 500 to 1000 nM.
On the same count and under the same terms, the figure for `Nc1ccc(-c2ccccc2Cc2ccccc2)c(N)n1` [Compound 44, 3-(2-Benzyl-phenyl)-pyridine-2,6-diamine] is 100 to 500 nM.
The same measure, in the same setting: the result for `Nc1ccc(-c2ccccc2)c(N)n1` [Compound 1a, 3-phenylpyridine-2,6-diamine] reads above 1000 nM; that for `Nc1ccc(-c2ccccc2Oc2ccccc2)c(N)n1` [Compound 43, 3-(2-Phenoxy-phenyl)-pyridine-2,6-diamine], 100 to 500 nM.
The same measure, in the same setting: the result for `CN(C)c1ccccc1-c1ccc(N)nc1N` [Compound 61, 3-(2-Dimethylamino-phenyl)-pyridine-2,6-diamine] reads 100 to 500 nM.
